# Measurements from US20240246992A1, “MACROCYCLIC LRRK2 KINASE INHIBITORS” (LES LABORATOIRES SERVIER, priority 2021, published 2024).
# Biological target: human recombinant LRRK2 protein (Homo sapiens, UniProt Q5S007)
# Assay: LRRK2 kinase activity assay (ADP-Glo, LRRKtide peptide)
# Type: biochemical
# Conditions: human recombinant LRRK2 wt, LRRKtide peptide and ATP, 1 h at 37° C.
# How it was run: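 Human recombinant LRRK2 reacted with LRRKtide peptide and ATP for 1 h at 37 °C in the presence of compound. ADP formed measured by ADP-Glo luminescence; IC50 fitted from 10 concentrations run in duplicate.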
# human recombinant LRRK2 protein, sequence (Q5S007 whole entry): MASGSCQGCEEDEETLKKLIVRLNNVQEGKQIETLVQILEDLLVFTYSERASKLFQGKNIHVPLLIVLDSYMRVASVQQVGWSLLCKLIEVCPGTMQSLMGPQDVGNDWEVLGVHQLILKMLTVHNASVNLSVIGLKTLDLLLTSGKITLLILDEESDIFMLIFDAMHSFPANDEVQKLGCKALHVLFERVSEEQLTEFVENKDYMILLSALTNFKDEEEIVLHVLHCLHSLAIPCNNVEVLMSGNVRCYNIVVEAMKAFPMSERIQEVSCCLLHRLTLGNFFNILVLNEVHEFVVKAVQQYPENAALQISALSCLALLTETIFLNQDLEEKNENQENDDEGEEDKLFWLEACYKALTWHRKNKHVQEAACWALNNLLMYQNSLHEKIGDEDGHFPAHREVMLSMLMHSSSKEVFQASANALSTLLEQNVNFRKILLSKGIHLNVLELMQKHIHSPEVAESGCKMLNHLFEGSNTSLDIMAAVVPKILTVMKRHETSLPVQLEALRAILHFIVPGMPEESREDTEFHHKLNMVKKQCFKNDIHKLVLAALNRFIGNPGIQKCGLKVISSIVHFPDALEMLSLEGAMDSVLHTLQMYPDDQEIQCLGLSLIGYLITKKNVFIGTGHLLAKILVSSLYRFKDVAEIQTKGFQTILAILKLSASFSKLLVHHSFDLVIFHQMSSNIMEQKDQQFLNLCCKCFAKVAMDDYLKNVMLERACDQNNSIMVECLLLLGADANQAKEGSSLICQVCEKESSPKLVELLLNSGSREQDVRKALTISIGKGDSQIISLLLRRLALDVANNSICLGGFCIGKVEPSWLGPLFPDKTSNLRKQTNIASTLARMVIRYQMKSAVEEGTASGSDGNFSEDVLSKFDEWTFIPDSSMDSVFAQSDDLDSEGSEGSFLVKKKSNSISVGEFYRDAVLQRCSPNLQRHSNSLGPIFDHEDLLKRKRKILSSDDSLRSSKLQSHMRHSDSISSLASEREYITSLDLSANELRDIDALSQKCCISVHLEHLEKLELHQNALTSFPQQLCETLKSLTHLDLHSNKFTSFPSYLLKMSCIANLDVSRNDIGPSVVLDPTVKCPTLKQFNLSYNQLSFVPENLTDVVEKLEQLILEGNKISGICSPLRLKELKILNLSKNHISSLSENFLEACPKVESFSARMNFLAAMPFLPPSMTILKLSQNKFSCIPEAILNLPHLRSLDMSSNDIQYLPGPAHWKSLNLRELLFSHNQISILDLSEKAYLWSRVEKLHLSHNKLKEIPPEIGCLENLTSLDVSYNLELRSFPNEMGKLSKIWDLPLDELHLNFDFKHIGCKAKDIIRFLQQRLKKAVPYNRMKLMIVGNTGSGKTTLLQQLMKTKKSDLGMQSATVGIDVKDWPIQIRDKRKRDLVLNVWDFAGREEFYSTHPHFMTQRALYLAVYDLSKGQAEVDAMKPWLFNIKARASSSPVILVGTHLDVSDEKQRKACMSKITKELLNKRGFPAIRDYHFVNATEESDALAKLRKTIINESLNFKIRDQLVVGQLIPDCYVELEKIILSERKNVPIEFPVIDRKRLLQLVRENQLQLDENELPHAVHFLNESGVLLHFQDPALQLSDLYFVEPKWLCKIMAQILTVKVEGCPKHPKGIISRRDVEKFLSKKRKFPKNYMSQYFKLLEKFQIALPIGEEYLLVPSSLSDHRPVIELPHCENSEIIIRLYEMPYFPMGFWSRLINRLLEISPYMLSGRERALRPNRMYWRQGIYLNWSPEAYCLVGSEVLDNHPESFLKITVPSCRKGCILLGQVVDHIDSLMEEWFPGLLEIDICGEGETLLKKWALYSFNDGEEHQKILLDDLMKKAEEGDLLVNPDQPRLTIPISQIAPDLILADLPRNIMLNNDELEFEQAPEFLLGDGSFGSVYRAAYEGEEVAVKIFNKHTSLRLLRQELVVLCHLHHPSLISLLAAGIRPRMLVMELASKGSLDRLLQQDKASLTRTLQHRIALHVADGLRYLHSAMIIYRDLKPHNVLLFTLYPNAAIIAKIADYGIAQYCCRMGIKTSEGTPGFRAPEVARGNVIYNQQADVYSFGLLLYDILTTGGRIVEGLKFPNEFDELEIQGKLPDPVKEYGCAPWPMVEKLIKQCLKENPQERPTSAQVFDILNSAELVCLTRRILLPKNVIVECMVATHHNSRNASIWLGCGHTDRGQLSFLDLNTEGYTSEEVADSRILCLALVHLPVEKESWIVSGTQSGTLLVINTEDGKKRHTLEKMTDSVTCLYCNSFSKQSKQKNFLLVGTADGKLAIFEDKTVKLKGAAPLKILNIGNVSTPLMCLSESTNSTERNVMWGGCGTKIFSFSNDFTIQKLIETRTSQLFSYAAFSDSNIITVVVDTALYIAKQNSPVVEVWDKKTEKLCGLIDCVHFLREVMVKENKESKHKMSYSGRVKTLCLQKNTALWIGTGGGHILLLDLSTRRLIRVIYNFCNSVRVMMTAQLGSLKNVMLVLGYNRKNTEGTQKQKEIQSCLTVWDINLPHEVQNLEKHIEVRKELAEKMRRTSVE
row,Structure (SMILES),IC50
1,"O=C1COc2cc(cc(N3CCN(CC4CC4)CC3)c2)-c2n[nH]c3ccc(cc23)OCCCN1 [Example 209, 4-[4-(cyclopropylmethyl)piperazin-1-yl]-7,14-dioxa-10,19,20-triazatetracyclo[13.5.2.1^2,6.0^18,21]tricosa-1(20),2(23),3,5,15,17,21-heptaen-9-one]",< 0.01 µM
2,"C[C@H]1COc2ccc3[nH]nc(c3c2)-c2cccc(c2)OCC(=O)N[C@@H]1C [Example 215, (11R,12R)-11,12-dimethyl-7,14-dioxa-10,19,20-triazatetracyclo[13.5.2.1^2,6.0^18,21]tricosa-1(20),2,4,6(23),15(22),16,18(21)-heptaen-9-one]",< 0.1 µM
3,"O=C1CCc2cncc(c2)-c2n[nH]c3ccc(cc23)OCCCN1 [Example 220, 14-oxa-4,10,19,20-tetraazatetracyclo[13.5.2.1^2,6.0^18,21]tricosa-1(20),2(23),3,5,15(22),16,18(21)-heptaen-9-one]",< 0.01 µM
4,"CN1CCOc2ccc3[nH]nc(c3c2)-c2cccc(c2)OCCC1=O [Example 221, 11-methyl-7,14-dioxa-11,19,20-triazatetracyclo[13.5.2.1^2,6.0^18,21] tricosa-1(20),2(23),3,5,15,17,21-heptaen-10-one]",< 0.1 µM
5,"O=C1COCCn2ncc(n2)-c2n[nH]c3ccc(cc23)OCCN1 [Example 222, 8,14-dioxa-4,5,11,19,20,23-hexaazatetracyclo[13.5.2.1^2,5.0^18,21]tricosa-1(20),2(23),3,15(22),16,18(21)-hexaen-10-one]",< 1 µM
6,"C[C@@H]1CCNC(=O)CCn2ncc(n2)-c2n[nH]c3ccc(cc23)O1 [Example 223, (12R)-12-methyl-13-oxa-4,5,9,18,19,22-hexaazatetracyclo[12.5.2.1^2,5.0^17,20]docosa-1(19),2(22),3,14(21),15,17(20)-hexaen-8-one]",< 0.01 µM
7,"O=C1CCn2ncc(n2)-c2n[nH]c3ccc(cc23)OC[C@@H](F)CN1 [Example 225, (11S)-11-fluoro-13-oxa-4,5,9,18,19,22-hexaazatetracyclo [12.5.2.1^2,5.0^17,20]docosa-1(19),2(22),3,14(21),15,17(20)-hexaen-8-one]",< 0.01 µM
8,"C[C@H]1CCNC(=O)CCn2ncc(n2)-c2n[nH]c3ccc(cc23)O1 [Example 226, (12S)-12-methyl-13-oxa-4,5,9,18,19,22-hexaazatetracyclo [12.5.2.1^2,5.0^17,20]docosa-1(19),2(22),3,14(21),15,17(20)-hexaen-8-one]",< 0.01 µM
9,"O=C1CCn2ncc(n2)-c2n[nH]c3ccc(cc23)OC[C@H](F)CN1 [Example 227, (11R)-11-fluoro-13-oxa-4,5,9,18,19,22-hexaazatetracyclo [12.5.2.1^2,5.0^17,20]docosa-1(19),2(22),3,14(21),15,17(20)-hexaen-8-one]",< 0.01 µM
10,"C[C@@H]1COc2ccc3[nH]nc(c3c2)-c2cccc(c2)OCCN[C@@H]1C [Example 228, (11R,12S)-11,12-dimethyl-7,14-dioxa-10,19,20-triazatetracyclo[13.5.2.1^2,6.0^18,21]tricosa-1(20),2,4,6(23),15(22),16,18(21)-heptaene]",< 0.01 µM
11,"C[C@H]1NCCOc2cccc(c2)-c2n[nH]c3ccc(cc23)OC[C@@H]1F [Example 231, (11R,12R)-12-fluoro-11-methyl-7,14-dioxa-10,19,20-triazatetracyclo[13.5.2.1^2,6.0^18,21]tricosa-1(20),2,4,6(23),15(22),16,18(21)-heptaene]",< 0.1 µM
12,"C[C@H]1CCNCCOc2cncc(c2)-c2n[nH]c3ccc(cc23)O1 [Example 232, (13S)-13-methyl-7,14-dioxa-4,10,19,20-tetraazatetracyclo[13.5.2.1^2,6.0^18,21]tricosa-1(20),2,4,6(23),15(22),16,18(21)-heptaene]",< 0.01 µM
13,"C[C@H]1CCNCCCn2cc(cn2)-c2n[nH]c3ccc(cc23)O1 [Example 233, (12S)-12-methyl-13-oxa-4,5,9,18,19-pentaazatetracyclo [12.5.2.1^2,5.0^17,20] docosa-1(19),2(22),3,14(21),15,17(20)-hexaene]",< 0.01 µM
14,"c1cc2[nH]nc3c2cc1OCCNCCCOc1cc-3cc(N2CCOCC2)c1 [Example 236, 4-(morpholin-4-yl)-7,14-dioxa-11,19,20-triazatetracyclo [13.5.2.1^2,6.0^18,21]tricosa-1(20),2,4,6(23),15,17,21-heptaene]",< 0.01 µM
15,"c1cc2nc(c1)-c1n[nH]c3ccc(cc13)OCCCNCCO2 [Example 237, 7,14-dioxa-10,19,20,23-tetraazatetracyclo[13.5.2.1^2,6.0^18,21]tricosa-1(20),2,4,6(23),15,17,21-heptaene]",< 0.01 µM
16,"c1ncc2cc1OCCCNCCOc1ccc3[nH]nc-2c3c1 [Example 238, 7,14-dioxa-4,11,19,20-tetraazatetracyclo[13.5.2.1^2,6.0^18,21]tricosa-1(20),2,4,6(23),15,17,21-heptaene]",< 0.01 µM
17,"CC(C)Oc1cc2cc(c1)-c1n[nH]c3ccc(cc13)OCCCN(C)CCO2 [Example 239, 10-methyl-4-(propan-2-yloxy)-7,14-dioxa-10,19,20-triazatetracyclo[13.5.2.1^2,6.0^18,21]tricosa-1(20),2,4,6(23),15,17,21-heptaene]",< 0.1 µM
18,"CC1CCOc2ccc3[nH]nc(c3c2)-c2cccc(n2)OCCN1 (stereo not shown) [Example 240, 11-methyl-7,14-dioxa-10,19,20,23-tetraazatetracyclo[13.5.2.1^2,6.0^18,21]tricosa-1(20),2,4,6(23),15,17,21-heptaene]",< 0.01 µM
19,C[C@@H]1CCNC(=O)C[C@H](C)n2ncc(n2)-c2n[nH]c3ccc(cc23)O1 [Example 242],< 0.01 µM
20,C[C@@H]1CCN(C)C(=O)C[C@H](C)n2ncc(n2)-c2n[nH]c3ccc(cc23)O1 [Example 243],< 0.1 µM
21,"C[C@@H]1CCN(C)CC[C@H](C)n2ncc(n2)-c2n[nH]c3ccc(cc23)O1 [Example 244, (6S,12R)-6,9,12-trimethyl-13-oxa-4,5,9,18,19,22-hexaazatetracyclo[12.5.2.1^2,5.0^17,20]docosa-1(19),2(22),3,14(21),15,17(20)-hexaene]",< 0.1 µM
22,"C[C@@H]1CCOCCCn2cc(cn2)-c2n[nH]c3cnc(cc23)O1 [Example 245, (12R)-12-methyl-9,13-dioxa-4,5,15,18,19-pentaaza tetracyclo[12.5.2.1^2,5.0^17,20]docosa-1(19),2(22),3,14(21),15,17(20)-hexaene]",< 0.01 µM
23,C[C@H]1COc2cc3c(n[nH]c3cn2)-c2cnn(c2)CCOCCO1 [Example 246],< 0.1 µM

# Further lines, results first:
row,IC50,Structure (SMILES)
1,< 0.01 µM,"O=C1COc2cc(cc(N3CCOCC3)c2)-c2n[nH]c3ccc(cc23)OCCCN1 [Example 207, 4-(morpholin-4-yl)-7,14-dioxa-10,19,20-triazatetracyclo [13.5.2.1^2,6.0^18,21]tricosa-1(20),2(23),3,5,15,17,21-heptaen-9-one]"
2,< 0.01 µM,"O=C1COc2cc(C3=CCOCC3)cc(c2)-c2n[nH]c3ccc(cc23)OCCCN1 [Example 208, 4-(3,6-dihydro-2H-pyran-4-yl)-7,14-dioxa-10,19,20-triazatetracyclo[13.5.2.1^2,6.0^18,21]tricosa-1(20),2(23),3,5,15,17,21-heptaen-9-one]"
3,< 0.01 µM,"O=C1COc2cc(C3=CCCOC3)cc(c2)-c2n[nH]c3ccc(cc23)OCCCN1 [Example 210, 4-(5,6-dihydro-2H-pyran-3-yl)-7,14-dioxa-10,19,20-triazatetracyclo[13.5.2.1^2,6.0^18,21]tricosa-1(20),2(23),3,5,15,17,21-heptaen-9-one]"
4,< 0.01 µM,"O=C1COc2cc(C3=CCOC3)cc(c2)-c2n[nH]c3ccc(cc23)OCCCN1 [Example 211, 4-(2,5-dihydrofuran-3-yl)-7,14-dioxa-10,19,20-triazatetracyclo[13.5.2.1^2,6.0^18,21]tricosa-1(20),2(23),3,5,15,17,21-heptaen-9-one]"
5,< 0.01 µM,"O=C1COc2cc(cc(N3CCNCC3)c2)-c2n[nH]c3ccc(cc23)OCCCN1 [Example 212, 4-(piperazin-1-yl)-7,14-dioxa-10,19,20-triazatetracyclo [13.5.2.1^2,6.0^18,21]tricosa-1(20),2(23),3,5,15,17,21-heptaen-9-one]"
6,< 0.01 µM,"O=C1COc2cc(-c3ccoc3)cc(c2)-c2n[nH]c3ccc(cc23)OCCCN1 [Example 213, 4-(furan-3-yl)-7,14-dioxa-10,19,20-triazatetracyclo[13.5.2.1^2,6.0^18,21]tricosa-1(20),2(23),3,5,15,17,21-heptaen-9-one]"
7,< 0.01 µM,"O=C1COc2cc(cc(C3CCOC3)c2)-c2n[nH]c3ccc(cc23)OCCCN1 (stereo not shown) [Example 214, 4-(oxolan-3-yl)-7,14-dioxa-10,19,20-triazatetracyclo[13.5.2.1^2,6.0^18,21]tricosa-1(20),2(23),3,5,15,17,21-heptaen-9-one]"
8,< 0.01 µM,"O=C1COc2cc(cc(N3C[C@@H](F)[C@H](F)C3)c2)-c2n[nH]c3ccc(cc23)OCCCN1 [Example 216, 4-[(3R,4R)-3,4-difluoropyrrolidin-1-yl]-7,14-dioxa-10,19,20-triazatetracyclo[13.5.2.1^2,6.0^18,21]tricosa-1(20),2(23),3,5,15,17,21-heptaen-9-one]"
9,< 0.01 µM,"O=C1COc2cc(cc(N3CCN(C4CC4)CC3)c2)-c2n[nH]c3ccc(cc23)OCCCN1 [Example 217, 4-(4-cyclopropylpiperazin-1-yl)-7,14-dioxa-10,19,20-triazatetracyclo[13.5.2.1^2,6.0^18,21]tricosa-1(20),2(23),3,5,15,17,21-heptaen-9-one]"
10,< 0.01 µM,"O=C1COc2cc(cc(C3CCCCO3)c2)-c2n[nH]c3ccc(cc23)OCCCN1 (stereo not shown) [Example 218, 4-(oxan-2-yl)-7,14-dioxa-10,19,20-triazatetracyclo[13.5.2.1^2,6.0^18,21]tricosa-1(20),2(23),3,5,15,17,21-heptaen-9-one]"
11,< 0.01 µM,"O=C1CCc2cc(F)cc(c2)-c2n[nH]c3ccc(cc23)OCCCN1 [Example 219, 4-fluoro-14-oxa-10,19,20-triazatetracyclo[13.5.2.1^2,6.0^18,21]tricosa-1(20),2(23),3,5,15(22),16,18(21)-heptaen-9-one]"
